Legend:
Yap1 mRNA [1] = assay: Dose-dependent inhibition of human Yap1 in SNU-449 cells (Example 9, RTS36584); format: cell-based; settings: free uptake; for % UTC (Yap1 mRNA): approximately 48 hours; for IC50: linear regression on a log/linear plot
Summary of the method: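 Read-out was Yap1 mRNA (primer-probe RTS36584) normalised to total RNA by RIBOGREEN, given as % of untreated cells, with IC50 fitted by linear regression of log/linear data. Oligonucleotides were dosed by free uptake to SNU-449 cells, 10,000/well, for ~48 h.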

[2] = Tolerability in Sprague-Dawley rats, plasma chemistry markers (Example 22); format: in vivo; settings: male Sprague-Dawley rats, 50 mg/kg s.c. weekly for 6 weeks (7 doses), 48 hours after last dose
Protocol: Sprague-Dawley rats are a multipurpose model used for safety and efficacy evaluations. The rats were treated with Ionis modified oligonucleotides from the studies described in the Examples above and evaluated for changes in the levels of various plasma chemistry markers.

Yap1 mRNA [3] = assay: Dose-dependent inhibition of human Yap1 in A-431 cells (Example 24, 11,000 cells per well, RTS36584, normalized to GAPDH); format: cell-based; settings: free uptake, 48 hours; for Yap1 mRNA, % UTC: RTS36584, normalized to GAPDH; for IC50: linear regression on a log/linear plot
Protocol: Modified oligonucleotides described in the studies above were tested at various doses in A-431 cells. Cultured A-431 cells at a density of 11,000 cells per well were treated using free uptake with modified oligonucleotides diluted to concentrations described in the tables below. After approximately 48 hours, Yap1 mRNA levels were measured as previously described using the Human Yap1 primer-probe set RTS36584. Yap1 mRNA levels were normalized to GAPDH content, as measured by primer probe set RTS104 (forward sequence […], designated herein as SEQ ID NO.: 17; reverse sequence […], designated herein as SEQ ID NO.: 18; probe sequence […], designated herein as SEQ ID NO.: 19). Results are presented in the tables below as percent control of the amount of Yap1 mRNA relative to untreated control cells (% UTC). IC50s were calculated using a linear regression on a log/linear plot of the data in excel.

Yap1 mRNA [4] = assay: Inhibition of human Yap1 mRNA in epidermoid carcinoma A-431 xenograft tumors (Example 27); format: in vivo; settings: A-431 xenografts in NCr-Foxn1nu mice, 6-8 hours post final dose, relative to PBS
Protocol: An epidermoid carcinoma A-431 xenograft tumor model was used to evaluate activity of modified oligonucleotides targeted to human Yap1. Five million A-431 cells in 30% matrigel were implanted subcutaneously into the flanks of female NCr-Foxn1nu mice (from Taconic) at 4-6 weeks of age. When tumors reached an average volume of 40 mm^3, approximately two weeks post-implantation, groups of four mice each were administered at either 25 mg/kg or 50 mg/kg daily with modified oligonucleotides for […] (5 doses). Tumors were collected 6-8 hours post final dose and tested for Yap1 mRNA knockdown by RT-qPCR. Yap1 mRNA levels were measured as previously described using the Human Yap1 primer-probe set RTS4814. Yap1 mRNA levels were normalized to actin-beta content, as measured by primer probe set RTS5002. Results are presented in the tables below as percent control of the amount of Yap1 mRNA relative to PBS treated animals (% control).

[5] = Cynomolgus monkey tolerability, body and organ weight measurements (Example 34); format: in vivo; settings: cynomolgus monkeys, 35 mg/kg subcutaneously; for Heart weight / Kidney weight / Liver with gallbladder weight / Spleen weight: necropsy; for Terminal Body Weight: prior to necropsy
Protocol: Cynomolgus monkeys were treated with Ionis modified oligonucleotides selected from studies described in the Examples above. Modified oligonucleotide tolerability was evaluated.
During the study period, the monkeys were observed twice daily for signs of illness or distress. Any animal experiencing more than momentary or slight pain or distress due to the treatment, injury or illness was treated by the veterinary staff with approved analgesics or agents to relieve the pain after consultation with the Study Director. Any animal in poor health or in a possible moribund condition was identified for further monitoring and possible euthanasia. Scheduled euthanasia of the animals was conducted on day 86 approximately 48 hours after the last dose by exsanguination while under deep anesthesia. The protocols described in the Example were approved by the Institutional Animal Care and Use Committee (IACUC).
To evaluate the effect of Ionis oligonucleotides on the overall health of the animals, body and organ weights were measured. Terminal body weight was measured prior to necropsy.

[6] = Cynomolgus monkey tolerability, coagulation (Example 34); format: in vivo; settings: cynomolgus monkeys, 35 mg/kg subcutaneously, day 44
Protocol: To evaluate effect of Ionis modified oligonucleotides on coagulation in cynomolgus monkeys, blood samples of approximately 0.9 mL were collected from each of the available study animals on day 44. The samples were collected in tubes containing 3.2% sodium citrate. Coagulation parameters tested include Activated partial thromboplastin time (APTT), prothrombin time (PT) and Figrinogen (FIB).

[7] = cynomolgus monkey, in vivo, sc, 35 mg/kg
Protocol: (§1) Prior to the study, the monkeys were kept in quarantine during which the animals were observed daily for general health. The monkeys were 2-4 years old and weighed 2-4 kg. Eleven groups of 4 randomly assigned male cynomolgus monkeys each were injected subcutaneously with Ionis oligonucleotide or saline in a clock-wise rotation between four different sites on the back. Following loading doses on days 1, 3, 5 and 7, the monkeys were dosed once per week (on days 14, 21, 28, 35, and 42) with 35 mg/kg of Ionis oligonucleotide.
(§2) To evaluate the effect of Ionis oligonucleotides on hepatic and kidney function, blood samples were collected from all the study groups on day 44. The monkeys were fasted overnight prior to blood collection. Blood was collected in tubes without anticoagulant for serum separation. The tubes were kept at room temperature for a minimum of 90 minutes and then centrifuged at 3000 rpm for 10 minutes to obtain serum. Levels of various liver function markers were measured using a Toshiba 200FR NEO chemistry analyzer (Toshiba Co., Japan).

[8] = Cynomolgus monkey tolerability, kidney and liver function markers (Example 34); settings: cynomolgus monkeys, 35 mg/kg subcutaneously, day 44
Protocol: as §1, §2

Row | Substance | % UTC (Yap1 mRNA) (Yap1 mRNA [1]; 31.3 nM) | % UTC (Yap1 mRNA) (Yap1 mRNA [1]; 125.0 nM) | % UTC (Yap1 mRNA) (Yap1 mRNA [1]; 500.0 nM) | % UTC (Yap1 mRNA) (Yap1 mRNA [1]; 2000.00 nM) | IC50 (Yap1 mRNA [1]) | ALT [2] | AST [2] | BUN [2] | TBIL [2] | Yap1 mRNA, % UTC (Yap1 mRNA [3]; 0.002 μM) | Yap1 mRNA, % UTC (Yap1 mRNA [3]; 0.008 μM) | Yap1 mRNA, % UTC (Yap1 mRNA [3]; 0.04 μM) | Yap1 mRNA, % UTC (Yap1 mRNA [3]; 0.2 μM) | Yap1 mRNA, % UTC (Yap1 mRNA [3]; 1 μM) | Yap1 mRNA in tumors, % control (Yap1 mRNA [4]; 25 mpk daily (5 doses)) | Yap1 mRNA in tumors, % control (Yap1 mRNA [4]; 50 mpk daily (5 doses)) | Heart weight [5] | Kidney weight [5] | Liver with gallbladder weight [5] | Spleen weight [5] | further results
1 | 1197270 (TTAAAGTGTATGTCAG; cEt gapmer with 2'-OMe nucleoside, phosphorothioate, further chemistry not given here) [compound 1197270] | 43 % UTC | 23 % UTC | 8 % UTC | 2 % UTC | < 30 nM | 84 U/L | 120 U/L | 24 mg/dL | 0.19 mg/dL | 0 % UTC | 2 % UTC | 26 % UTC | 80 % UTC | 99 % UTC | 57 % control | 38 % control | 10 g | 17 g | 73 g | 4 g | IC50 (Yap1 mRNA [3]): 20 nM; Terminal Body Weight [5]: 2852 g; APTT [6]: 17 s; FIB [6]: 257 mg/dL; PT [6]: 10 s; A/G ratio [7]: 1.2; ALB [8]: 3.7 g/dL; ALP [8]: 1215 IU/L; ALT [8]: 84 IU/L; AST [8]: 78 IU/L; BUN [8]: 27 mg/dL; CREA [8]: 0.9 mg/dL; GGT [8]: 75 IU/L; GLO [8]: 3.1 g/dL; GLU [8]: 115 mg/dL; HDL [8]: 102 mg/dL; LDL [8]: 48 mg/dL; TBIL [8]: 0.2 mg/dL; TG [8]: 31 mg/dL; TP [8]: 6.8 g/dL
2 | 1198605 (GTAATATTGCAATCTG; modified gapmer, further chemistry not given here) [compound 1198605] | 57 % UTC | 27 % UTC | 7 % UTC | 1 % UTC | 30 nM | 46 U/L | 76 U/L | 18 mg/dL | 0.33 mg/dL | 0 % UTC | 2 % UTC | 26 % UTC | 57 % UTC | 96 % UTC | 32 % control | 30 % control | 11 g | 15 g | 67 g | 4 g | IC50 (Yap1 mRNA [3]): 20 nM; Terminal Body Weight [5]: 2968 g; APTT [6]: 23 s; FIB [6]: 236 mg/dL; PT [6]: 9 s; A/G ratio [7]: 1.5; ALB [8]: 4.0 g/dL; ALP [8]: 1445 IU/L; ALT [8]: 40 IU/L; AST [8]: 58 IU/L; BUN [8]: 22 mg/dL; CREA [8]: 0.8 mg/dL; GGT [8]: 85 IU/L; GLO [8]: 2.7 g/dL; GLU [8]: 69 mg/dL; HDL [8]: 115 mg/dL; LDL [8]: 57 mg/dL; TBIL [8]: 0.2 mg/dL; TG [8]: 25 mg/dL; TP [8]: 6.7 g/dL
3 | 1198623 (CTAAGTAAGGTTTCCC; modified gapmer, further chemistry not given here) [compound 1198623] | 48 % UTC | 24 % UTC | 5 % UTC | 1 % UTC | < 30 nM | 96 U/L | 87 U/L | 21 mg/dL | 0.24 mg/dL | 2 % UTC | 5 % UTC | 28 % UTC | 72 % UTC | 96 % UTC | 43 % control | 36 % control | 9 g | 13 g | 62 g | 3 g | Terminal Body Weight [5]: 2790 g; APTT [6]: 17 s; FIB [6]: 229 mg/dL; PT [6]: 10 s; A/G ratio [7]: 1.4; ALB [8]: 4.2 g/dL; ALP [8]: 916 IU/L; ALT [8]: 50 IU/L; AST [8]: 47 IU/L; BUN [8]: 26 mg/dL; CREA [8]: 0.8 mg/dL; GGT [8]: 59 IU/L; GLO [8]: 3.0 g/dL; GLU [8]: 70 mg/dL; HDL [8]: 87 mg/dL; LDL [8]: 50 mg/dL; TBIL [8]: 0.2 mg/dL; TG [8]: 34 mg/dL; TP [8]: 7.2 g/dL
4 | 1198872 (TGTATGTCAGAAGAGT; chemically modified gapmer, further chemistry not given here) [compound 1198872] | 49 % UTC | 21 % UTC | 6 % UTC | 1 % UTC | < 30 nM | 109 U/L | 134 U/L | 18 mg/dL | 0.20 mg/dL | 1 % UTC | 3 % UTC | 19 % UTC | 70 % UTC | 94 % UTC | 34 % control | 26 % control | 12 g | 15 g | 63 g | 4 g | Terminal Body Weight [5]: 3126 g; APTT [6]: 21 s; FIB [6]: 206 mg/dL; PT [6]: 10 s; A/G ratio [7]: 1.3; ALB [8]: 4.0 g/dL; ALP [8]: 1098 IU/L; ALT [8]: 48 IU/L; AST [8]: 94 IU/L; BUN [8]: 27 mg/dL; CREA [8]: 0.9 mg/dL; GGT [8]: 79 IU/L; GLO [8]: 3.1 g/dL; GLU [8]: 80 mg/dL; HDL [8]: 114 mg/dL; LDL [8]: 60 mg/dL; TBIL [8]: 0.3 mg/dL; TG [8]: 19 mg/dL; TP [8]: 7.1 g/dL

Reference: patent US11214803B2, “Modulators of YAP1 expression” (Ionis Pharmaceuticals, Inc., priority 2019, dated 2022)
